Literature values, collected in US12109304B1, “Oral patch for treating mouth ulcers” (Xiamen LP Pharmaceutical Co., Ltd., priority 2023, dated 2024).

CCCCNc1ccc(C(=O)OCCN(C)C)cc1.Cl [Tetracaine hydrochloride]
Solubility in ethanol / alcohol (ethanol (alcohol)): soluble
Solubility in water (water): soluble
